Measurements as given in patent publication US20250041303A1, “COMBINATION THERAPY FOR CANCER TREATMENT” (INSTITUTE FOR CANCER RESEARCH D/B/A THE RESEARCH INSTITUTE …, priority 2021, published 2025).

How the values were obtained:
[1] = tested on: BET proteins (BRD2, BRD3 or BRD4); experiment: Western blot of BET protein degradation, parental vs degrader-resistant cells; format: cell-based; conditions: for degradation of BET proteins by escalating doses: 0-10 μM, 24 hours
Method: (§2) Samples were harvested in MIB lysis buffer (50 mM HEPES (pH 7.5), 0.5% Triton X-100, 150 mM NaCl, 1 mM EDTA, 1 mM EGTA, 10 mM sodium fluoride, 2.5 mM sodium orthovanadate, 1× protease inhibitor cocktail (Roche), and 1% each of phosphatase inhibitor cocktails 2 and 3 (Sigma)). Particulate was removed by centrifugation of lysates at 21,000 rpm for 15 minutes at 4° C. Lysates were subjected to SDS-PAGE chromatography and transferred to PVDF membranes before western blotting with primary antibodies. […] Secondary HRP-anti-rabbit and HRP-anti-mouse were obtained from ThermoFisher Scientific. SuperSignal West Pico and Femto Chemiluminescent Substrates (Thermo) were used to visualize blots.

CDK9 [2] = target: T1, CDK9 (Homo sapiens, UniProt P50750); experiment: Western blot of CDK9 degradation, A1847 parental vs Thal-R cells; format: cell-based; conditions: A1847 Thal-R vs parental; 2 μM, 4 hours
T1 sequence (P50750 whole entry): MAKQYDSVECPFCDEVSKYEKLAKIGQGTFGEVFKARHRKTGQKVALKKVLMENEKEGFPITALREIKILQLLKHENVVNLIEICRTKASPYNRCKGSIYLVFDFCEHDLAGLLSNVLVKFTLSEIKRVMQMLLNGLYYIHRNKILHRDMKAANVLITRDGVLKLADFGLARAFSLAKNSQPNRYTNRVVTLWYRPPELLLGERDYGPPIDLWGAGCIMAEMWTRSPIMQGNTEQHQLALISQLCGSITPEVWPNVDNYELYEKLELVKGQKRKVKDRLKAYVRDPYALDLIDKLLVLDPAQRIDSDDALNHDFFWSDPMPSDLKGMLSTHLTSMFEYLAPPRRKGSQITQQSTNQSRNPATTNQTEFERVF
T1 sequence (O60563 whole entry partner): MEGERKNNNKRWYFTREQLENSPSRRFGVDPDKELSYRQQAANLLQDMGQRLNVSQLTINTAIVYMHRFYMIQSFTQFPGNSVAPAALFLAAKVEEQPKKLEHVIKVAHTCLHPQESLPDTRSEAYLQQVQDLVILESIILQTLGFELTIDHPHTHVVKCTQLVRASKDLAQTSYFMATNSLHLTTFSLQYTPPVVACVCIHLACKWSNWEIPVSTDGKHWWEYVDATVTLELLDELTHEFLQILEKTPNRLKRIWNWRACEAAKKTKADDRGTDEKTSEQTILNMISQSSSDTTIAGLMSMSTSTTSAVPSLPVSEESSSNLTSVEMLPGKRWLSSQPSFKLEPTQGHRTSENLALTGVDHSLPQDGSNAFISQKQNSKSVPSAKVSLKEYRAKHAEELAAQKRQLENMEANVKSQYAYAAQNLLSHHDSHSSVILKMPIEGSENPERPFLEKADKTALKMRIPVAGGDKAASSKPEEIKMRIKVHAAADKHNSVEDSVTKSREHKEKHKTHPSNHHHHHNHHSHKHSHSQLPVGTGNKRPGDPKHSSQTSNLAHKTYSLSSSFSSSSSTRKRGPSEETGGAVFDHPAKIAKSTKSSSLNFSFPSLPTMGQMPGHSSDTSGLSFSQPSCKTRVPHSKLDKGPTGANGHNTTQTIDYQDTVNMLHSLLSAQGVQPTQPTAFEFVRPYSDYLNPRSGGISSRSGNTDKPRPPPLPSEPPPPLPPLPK
Method: as §2

BRD4 (BET proteins) = target: T2, BRD4 (BET proteins) (Homo sapiens, UniProt O60885); experiment: Western blot of BET protein/BRD4 degradation in DLD-1 cells; format: cell-based; conditions: 4 hours; for dBET6-mediated degradation of BRD4 on combined treatment: increasing doses of dBET6 plus the compound at 2 μM
T2 construct: endogenous in cells; host or cells: DLD-1
Method: as §2

[3] = tested on: A1847 dBET6-R or Thal-R cells; experiment: Apoptosis by western blot in degrader-resistant A1847 cells; format: cell-based; conditions: 2 μM, 4 hours
Method: as §2

MDR1 [4] = target: T3, MDR1 (Homo sapiens, UniProt P08183); experiment: Rhodamine 123 efflux assay in DLD-1 cells; format: cell-based; design: endogenous in cells; conditions: 2 μM
T3 sequence (P08183 whole entry): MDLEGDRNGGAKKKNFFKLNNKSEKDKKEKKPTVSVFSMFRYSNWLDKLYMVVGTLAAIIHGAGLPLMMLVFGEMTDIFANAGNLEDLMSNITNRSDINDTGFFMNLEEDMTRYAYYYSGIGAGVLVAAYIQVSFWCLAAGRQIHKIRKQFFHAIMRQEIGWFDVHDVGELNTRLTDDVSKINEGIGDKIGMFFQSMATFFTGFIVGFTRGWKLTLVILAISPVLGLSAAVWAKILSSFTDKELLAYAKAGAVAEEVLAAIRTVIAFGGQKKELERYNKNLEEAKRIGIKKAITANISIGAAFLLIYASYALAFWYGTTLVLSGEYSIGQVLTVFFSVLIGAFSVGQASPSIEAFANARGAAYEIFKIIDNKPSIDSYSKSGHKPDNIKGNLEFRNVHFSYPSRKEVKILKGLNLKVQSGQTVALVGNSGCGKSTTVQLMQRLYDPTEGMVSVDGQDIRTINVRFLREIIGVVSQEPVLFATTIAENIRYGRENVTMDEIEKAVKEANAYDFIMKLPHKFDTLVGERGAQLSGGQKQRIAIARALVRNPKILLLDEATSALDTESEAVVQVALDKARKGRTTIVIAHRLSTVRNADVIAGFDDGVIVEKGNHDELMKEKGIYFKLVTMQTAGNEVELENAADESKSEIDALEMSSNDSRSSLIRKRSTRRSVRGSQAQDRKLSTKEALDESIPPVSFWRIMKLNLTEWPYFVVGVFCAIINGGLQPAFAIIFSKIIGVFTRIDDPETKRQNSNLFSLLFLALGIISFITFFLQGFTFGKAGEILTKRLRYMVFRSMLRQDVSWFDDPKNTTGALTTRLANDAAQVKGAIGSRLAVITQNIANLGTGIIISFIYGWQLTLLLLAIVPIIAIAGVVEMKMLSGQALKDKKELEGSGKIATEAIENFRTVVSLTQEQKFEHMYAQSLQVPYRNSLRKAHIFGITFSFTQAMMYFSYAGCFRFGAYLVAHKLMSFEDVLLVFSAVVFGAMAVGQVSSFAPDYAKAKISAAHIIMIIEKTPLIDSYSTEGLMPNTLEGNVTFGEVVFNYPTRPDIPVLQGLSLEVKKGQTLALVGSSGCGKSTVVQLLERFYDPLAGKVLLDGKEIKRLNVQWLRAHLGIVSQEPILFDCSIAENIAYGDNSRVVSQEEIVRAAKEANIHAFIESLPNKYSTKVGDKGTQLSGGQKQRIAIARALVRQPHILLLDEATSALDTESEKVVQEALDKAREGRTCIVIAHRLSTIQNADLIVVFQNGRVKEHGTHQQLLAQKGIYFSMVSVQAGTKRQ
Method: (§1) Efflux assay was performed according to manufacturer's protocol (Millipore Sigma #ECM910). Cells were resuspended in cold efflux buffer and incubated with Rhodamine 123 for 1 hour on ice. Cells were centrifuged and treated in warm efflux buffer with DMSO or drug for 30-60 minutes, washed with cold PBS, and effluxed dye was quantified with a plate reader at an excitation wavelength of 485 nm and an emission wavelength of 530 nm.

CDK9 [5] = target: T1, CDK9; experiment: Western blot of CDK9 degradation in DLD-1 cells; format: cell-based; design: endogenous in cells; host or cells: DLD-1; conditions: DLD-1; increasing doses of Thal SNS 032 plus the compound at 2 μM, 4 hours
Method: as §2

DLD-1 cells = experiment: Colony formation assay (14 days) in DLD-1 cells; conditions: for colony formation on co-treatment with dBET6: dBET6 0.1 μM plus the compound at 2 μM, 14-day period
[6] = tested on: A1847 and SUM159 parental and degrader-resistant cells; experiment: CellTiter-Glo cell viability, parental vs degrader-resistant cells
MDR1 [7] = target: T3, MDR1; experiment: Rhodamine 123 efflux assay in degrader-resistant cells; format: cell-based; design: endogenous in cells; host or cells: A1847 parental, dBET6-R, Thal-R; SUM159 parental, MZ1-R; conditions: 2 μM
Method: as §1

[8] = tested on: HCT-15, DLD-1 and CAKI-1 cells (MDR1 overexpressing); experiment: CellTiter-Glo cell viability of MDR1 overexpressing vs low MDR1 cancer cell lines; conditions: HCT-15, DLD-1, CAKI-1 vs A1847, SUM159, MOLT4; escalating doses, 5 days
MDR1 (ABCB1) = experiment: Single-run proteomics (LC-MS/MS, label-free quantitation) of degrader-resistant cells; format: cell-based, human
Method: To determine changes in cells chronically exposed to BET or CDK9 PROTACs, we performed single-run proteome analysis as previously described (Lai et al., Front. Oncol., 2020, 10, 2336). Briefly, WT or PROTAC-R cells were lysed in 50 mM HEPES pH 8.0+4% SDS, and 100 μg of proteins were digested using LysC and trypsin. Digested peptides were isolated using C-18 and PGC columns, then dried and cleaned with ethyl acetate. Three […] peptides were analyzed using LC-MS/MS. MaxQuant normalized LFQ values were imported into Perseus software (1.6.2.3) and filtered in the following manner: kinases identified by site only were removed, reverse, or potential contaminant were removed then filtered for kinases identified by >1 unique peptide. Protein LFQ values were log 2 transformed, filtered for a minimum valid number of 3, normalized using Z-scores, annotated, and subjected to a Student's t-test with comparing […]. […]
Proteolytic peptides were resuspended in 0.1% formic acid and separated with a Thermo Scientific RSLC nano Ultimate 3000 LC on a Thermo Scientific Easy-Spray C18 PepMap 75 μm×50 cm C-18 2 μm column. […] Eluted peptides were analyzed by Thermo Scientific Q Exactive or Q Exactive plus mass spectrometers utilizing a top 15 methodology in which the 15 most intense peptide precursor ions were subjected to fragmentation. […]
Raw data analysis of LFQ experiments was performed using MaxQuant software 1.6.1.0 and searched using Andromeda 1.5.6.0 against the Swiss-Prot human protein database (downloaded on Apr. 24, 2019, 20402 entries). […] LFQ quantitation was performed using MaxQuant with the following parameters; LFQ minimum ratio count: Global parameters for protein quantitation were as follows: label minimum ratio count: 1, peptides used for quantitation: unique, only use modified proteins selected and with normalized average ratio estimation selected. Match between runs was employed for LFQ quantitation and the significance threshold of the ion score was calculated based on a false discovery rate of <1%.

ABCB1 (MDR1) = experiment: ABCB1 expression and MDR1 protein by qRT-PCR and immunoblot after chronic MZ1 exposure; format: cell-based
Method: GeneJET RNA purification kit (Thermo Scientific) was used to isolate RNA from cells according to manufacturer's instructions. qRT-PCR on diluted cDNA was performed with inventoried TaqMan® Gene Expression Assays on the Applied Biosystems 7500 Fast Real-Time PCR System. The TaqMan Gene Expression Assay probes (ThermoFisher Scientific) used to assess changes in gene expression include ABCB1 (Assay ID: Hsxxxx), and ACTB (control) (Assay ID: Hsxxxx).

A1847 or SUM159 cells = experiment: Colony formation assay (14 days, crystal violet); conditions: SUM159 cells expressing Flag-MDR1, MZ1 0.1 μM, with or without tariquidar 0.1 μM
[9] = tested on: OVCAR3, HCT116, and MOLT4 cells; experiment: CellTiter-Glo cell viability, parental vs MZ1 chronically exposed cells; conditions: 5 days
MEK1/2 [10] = experiment: Western blot of MEK1/2 degrader target in DLD-1 cells; format: cell-based; conditions: 1 μM, 24 hours
MEK1/2 [11] = experiment: Western blot of MEK1/2 degradation and ERK1/2 phosphorylation in LS513 cells; format: cell-based; conditions: LS513 (MDR1-overexpressing) vs SKCO1; escalating doses, 4 hours
Method: as §2

[12] = tested on: K-ras mutant CRC cell lines (LS1034, LS513, SW948, SW1463, SKCO1, NCIH747, SW620); experiment: Cell viability (CellTiter-Glo) and colony formation of K-ras mutant CRC cell lines; conditions: escalating doses 5 days (viability); 1 μM 14 days (colony formation)
[13] = A1847 parental vs chronically exposed cells, escalating doses, 5 days

CO[C@H]1C[C@@H]2CC[C@@H](C)[C@@](O)(O2)C(=O)C(=O)N2CCCC[C@H]2C(=O)O[C@H]([C@H](C)C[C@@H]2CC[C@@H](OCCO)[C@H](OC)C2)CC(=O)[C@H](C)/C=C(\C)[C@@H](O)[C@@H](OC)C(=O)[C@H](C)C[C@H](C)/C=C/C=C/C=C/1C [RAD001, Everolimus] was tested, and the “degradation of BET proteins in degrader-resistant cell lines” value ([1]; A1847 dBET6-R or MZ1-R vs parental, 2 μM, 4 hours) was “resulted in degradation of BET proteins”, the “degradation of CDK9 in degrader-resistant cell lines” value (CDK9 [2]) was “resulted in degradation of BET proteins (FIG. 5, Panel G; FIG. 12, Panels E and F) or CDK9” and the “reduction in concentrations of dBET6 required to degrade BRD4 when combined” value (BRD4 (BET proteins); combined with the compound at 2 μM) was 100 fold. For the same compound, the “dBET6-mediated degradation of BRD4 on combined treatment” value (BRD4 (BET proteins)) was “improved dBET6-mediated degradation of BRD4”, the “apoptosis in degrader-resistant cell lines” value [3] was “resulted in apoptosis similar to tariquidar treatment” and the “MDR1 drug efflux activity (Rhodamine 123 efflux)” value (shortened to “MDR1 drug efflux activity”) (MDR1 [4]) was “reduced MDR1 drug efflux activity similar to tariquidar-treatment”. For the same compound, the “degradation of CDK9 by Thal SNS 032 on combined treatment” value (CDK9 [5]) was “improving degradation of CDK9”, the “growth inhibition of colonies on combination with Thal SNS 032” value (DLD-1 cells; compound at 2 μM, 14 days) was “enhancing growth inhibition of colonies” and the “colony formation on co-treatment with dBET6” value (DLD-1 cells) was “exhibits drug synergy”. For the same compound, the “sensitivity of degrader-resistant cells vs parental cells (cell viability)” value ([6]; increasing concentrations, A1847 dBET6-R, Thal-R, MZ1-R and SUM159 MZ1-R) was “more sensitive” and the “MDR1 drug efflux activity” value (MDR1 [7]; A1847 dBET6-R or Thal-R cell lines) was “reduced MDR1 drug efflux activity similar to that observed with tariquidar”.

CN(C)C/C=C/C(=O)Nc1cc2c(Nc3ccc(F)c(Cl)c3)ncnc2cc1O[C@H]1CCOC1 [afatinib] was tested, and the “MDR1 drug efflux activity” value (MDR1 [7]; A1847 Thal-R cells) was “does not reduce MDR1 drug efflux activity”.

With Cc1sc2c(c1C)C(c1ccc(Cl)cc1)=N[C@@H](CC(=O)NCCCCCCCCNC(=O)COc1cccc3c1C(=O)N(C1CCC(=O)NC1=O)C3=O)c1nnc(C)n1-2 (some centres unmarked) [dBET6] the “acquired resistance (cell viability dose-response)” value [6, 13] was “acquire resistance” and the “cell viability of MDR1 overexpressing cells” value [8] was “did not reduce cell viability to the extent of cancer cell lines expressing low or no detectable MDR1 protein”.

In the case of CC(=O)O[C@H]1C(=O)[C@@]2(C)[C@H]([C@H](OC(=O)c3ccccc3)[C@]3(O)C[C@H](OC(=O)[C@H](O)[C@@H](NC(=O)c4ccccc4)c4ccccc4)C(C)=C1C3(C)C)[C@]1(OC(C)=O)CO[C@@H]1C[C@@H]2O [paclitaxel], the “resistance to MDR1 substrate (cell viability)” value ([6]; BET protein or CDK9 degrader-resistant A1847 cells vs parental, 5 days) is reported as “acquired resistance”.

In the case of Cc1ncsc1-c1ccc(CNC(=O)[C@@H]2C[C@@H](O)CN2C(=O)[C@@H](NC(=O)COCCOCCOCCNC(=O)C[C@@H]2N=C(c3ccc(Cl)cc3)c3c(sc(C)c3C)-n3c(C)nnc32)C(C)(C)C)cc1 [MZ1], the “degradation of BET proteins by escalating doses” value ([1]; A1847 parental vs chronically exposed cells) is reported as “less effective at inducing degradation of BET proteins”, the “degradation of BET proteins by escalating doses” value ([1]; SUM159 parental vs MZ1-R cells) is reported as “less effective at inducing degradation of BET proteins” and the “MDR1 protein levels upregulated relative to parental cell lines by LFQ analysis” value (MDR1 (ABCB1); A1847 cells chronically exposed to the degrader (degrader-R) vs parental) is reported as 5-5 fold. For the same compound, the “MDR1 protein increase compared to parental cells (proteomics)” value (MDR1 (ABCB1); SUM159 MZ1-R cells vs parental) was about 4.5 fold, the “ABCB1 expression after chronic exposure” value (ABCB1 (MDR1); MOLT4 cells) was “do not induce ABCB1 expression” and the “MDR1 mRNA and protein levels after chronic exposure” value (ABCB1 (MDR1); OVCAR3 and HCT116 MZ1-R cells) was “elevated MDR1 mRNA and protein levels”. The “colony formation with forced expression of Flag-MDR1” value (A1847 or SUM159 cells) was “rescued colony formation growth”, the “acquired resistance (cell viability dose-response)” value [6, 13] was “acquire resistance” and the “acquired resistance (cell viability dose-response)” value ([6]; SUM159 parental vs chronically exposed (MZ1-R) cells, 5 days) was “resulted in degrader-resistance”. The “sensitivity after chronic exposure (cell viability)” value ([9]; MOLT4 parental or MZ1-R cells) was “retain sensitivity”, the “acquired resistance (cell viability)” value ([9]; OVCAR3 and HCT116, chronic exposure) was “acquired resistance” and the “cell viability of MDR1 overexpressing cells” value [8] was “did not reduce cell viability to the extent of cancer cell lines expressing low or no detectable MDR1 protein”.

With Cc1sc2c(c1C)C(c1ccc(Cl)cc1)=N[C@@H](CC(=O)OC(C)(C)C)c1nnc(C)n1-2 [JQ1] the “sensitization to tariquidar after chronic exposure” value ([6]; A1847 JQ1-R vs parental and dBET6-R cells) was “did not cause sensitization to tariquidar”.

For COc1ccc(-c2ccc3c(N4CCOCC4)nc(N4C[C@@H](C)O[C@@H](C)C4)nc3n2)cc1CO [KU-0063794], the “dBET6-mediated degradation of BRD4 on combined treatment” value (BRD4 (BET proteins)) was “failed to improve degradation of BRD4”, the “colony formation, single agent” value (DLD-1 cells; 2 μM, 14 days) was “completely repressed colony formation” and the “colony formation on co-treatment with dBET6” value (DLD-1 cells) was “did not improve growth inhibition”. For the same compound, the “MDR1 drug efflux activity” value (MDR1 [7]; A1847 Thal-R cells) was “does not reduce MDR1 drug efflux activity”.

With Cc1ncsc1-c1ccc([C@H](C)NC(=O)[C@@H]2C[C@@H](O)CN2C(=O)[C@@H](NC(=O)CCCCCCCCCCNCCCONC(=O)c2ccc(F)c(F)c2Nc2ccc(I)cc2F)C(C)(C)C)cc1 [MS432] the “protein reduction on co-treatment with tariquidar” value (MEK1/2 [10]) was “improved the protein reduction relative to single agent therapies”, the “MEK1 or MEK2 protein levels, ERK1/2 phosphorylation, apoptosis” value (MEK1/2 [11]) was “did not reduce MEKI or MEK2 protein levels, inhibit ERK1/2 phosphorylation or induce apoptosis” and the “resistance of MDR1 overexpressing vs MDR1 low expressing CRC cell lines” value [12] was “more resistant”.
